Legend:
[1] = general statement on two-phase culture; cited from earlier work
[2] = test system: SWITCH-PphoC Δgcd/pSTV28 strain; test: Linalool addition test (growth, O.D. value over time); type: cell-based, P. ananatis; conditions: reagent Linalool added at O.D. 0.6 to 0.7; tested at 1251, 837, 626 and 417 mg/L; M9 minimum medium, 34° C.; FIG. 58
Description: The glycerol stock of the SWITCH-PphoC Δgcd/pSTV28 strain obtained by transforming the SWITCH-PphoC Δgcd strain constructed in Example 2 with the commercially available plasmid vector pSTV28 (produced by Takara Bio Inc.) was thawed, and 50 μL of a microbial cell suspension was uniformly applied onto an LB plate containing 60 mg/L of chloramphenicol and cultured at 34° C. for 18 hours while left to stand (without agitation). […] Cultivation was carried out using a small-sized shaking culture apparatus TVS062CA (produced by Advantec Toyo Kaisha, Ltd.) for 23 hours, the shaking of 5.0 sec was stopped every 15 minutes, and the O.D. values were automatically measured.
The concentration of linalool in the culture medium was calculated from the specific gravity of the reagent Linalool (0.86 (20/4° C.)) (reference literature: actual values supplied from Wako Pure Chemical Industries, Ltd.).
The graph showing changes of the O.D. value over time measured using TVS062CA communication software (TV100070, produced by Advantec Toyo Kaisha, Ltd.) is illustrated in FIG. 58.

SMILES | solubility with respect to water [1] | concentration of linalool added to the culture medium at which the O.D. value is decreased (microbial cell growth inhibition) [2] [µg/mL]
C=C[C@@](C)(O)CCC=C(C)C [S-linalool, (3 S)-3,7-dimethylocta-1,6-diene-3-ol] | low solubility | 
C=CC(C)(O)CCC=C(C)C (stereo not drawn) [linalool, Linalool] |  | ≥ 626
C=C[C@](C)(O)CCC=C(C)C [R-linalool, (3R)-3,7-dimethylocta-1,6-diene-3-ol] | low solubility | 
